{"source": "paper PMC12133000", "about": "(PLOS One, 2025)", "key": {"[1]": {"system": "rat liver microsomes (RLMs)", "assay": "EGFR TKI screening: rivaroxaban metabolite M-2 formation in RLM incubation", "format": "in vitro ADME", "description": "The system was preincubated at 37 °C for 5 min, followed by the addition of NADPH (1 mM) to initiate the reaction. After incubating for an additional 30 min, a 200 μL of acetonitrile solution containing 200 ng/mL midazolam was introduced. The mixture was vortexed for 30 s, centrifuged at 13000 rpm for 5 min, and the supernatant was removed. Three samples were collected for each group."}, "[2]": {"conditions": "combination with TKI ref 25; cited from earlier work"}, "CYP3A4": {"system": "CYP3A4", "conditions": "in vitro ref 25; cited from earlier work"}, "[3]": {"conditions": "patients on rivaroxaban, combination with clarithromycin ref 33; cited from earlier work"}, "[4]": {"target": "rat liver microsomes (RLMs)", "assay": "Inhibitory mechanism (Ki, αKi, Lineweaver-Burk plots) in RLMs", "conditions": "read-out: inhibitory constant (Ki), substrate rivaroxaban", "source_text": "Ki and αKi values were computed, and the inhibitory mechanism was examined using Lineweaver–Burk plots."}, "CYP2J2": {"system": "CYP2J2", "conditions": "cited from earlier work; for inhibition of rivaroxaban hydroxylation by CYP2J2: in vitro ref 24"}, "P-gp": {"system": "P-gp", "design": "method as in PMID 35174529", "conditions": "in vitro, combination with rivaroxaban ref 21; read-out: IC50 (inhibitory properties of TKIs on DOACs, P-gp mediated); cited from earlier work"}}, "note": "Like-named read-outs stand apart in the source and are kept apart here.", "data": [{"smiles": "CS(=O)(=O)CCNCc1ccc(-c2ccc3ncnc(Nc4ccc(OCc5cccc(F)c5)c(Cl)c4)c3c2)o1", "note": "[lapatinib]", "values": [{"measurement": "effect on rivaroxaban metabolism (metabolite generation rate vs control)", "setting": "[1]", "value": "significantly inhibited"}]}, {"smiles": "CCOc1cc2ncc(C#N)c(Nc3ccc(OCc4ccccn4)c(Cl)c3)c2cc1NC(=O)/C=C/CN(C)C", "note": "[neratinib]", "values": [{"measurement": "effect on rivaroxaban metabolism (metabolite generation rate vs control)", "setting": "[1]", "value": "significantly inhibited"}]}, {"smiles": "COc1cc2ncnc(Nc3ccc(F)c(Cl)c3)c2cc1NC(=O)/C=C/CN1CCCCC1", "note": "[dacomitinib]", "values": [{"measurement": "effect on rivaroxaban metabolism (metabolite generation rate vs control)", "setting": "[1]; 100 μM EGFR TKI, RLMs", "value": "significantly inhibited"}]}, {"smiles": "CCN(CC)CCNC(=O)c1c(C)[nH]c(/C=C2\\C(=O)Nc3ccc(F)cc32)c1C", "note": "[sunitinib]", "values": [{"measurement": "reduction in exposure to rivaroxaban in vivo", "setting": "[2]", "value": 62.32, "unit": "%"}]}, {"smiles": "COc1cc2ncnc(Nc3ccc(F)c(Cl)c3)c2cc1OCCCN1CCOCC1", "note": "[gefitinib, Gefitinib]", "values": [{"measurement": "inhibition of CYP3A4-mediated rivaroxaban metabolism", "setting": "CYP3A4", "value": "potently inhibited"}]}, {"smiles": "CC[C@H]1OC(=O)[C@H](C)[C@@H](O[C@H]2C[C@@](C)(OC)[C@@H](O)[C@H](C)O2)[C@H](C)[C@@H](O[C@@H]2O[C@H](C)C[C@H](N(C)C)[C@H]2O)[C@](C)(OC)C[C@@H](C)C(=O)[C@H](C)[C@@H](O)[C@]1(C)O", "note": "[clarithromycin]", "values": [{"measurement": "increase in the AUC value for rivaroxaban", "setting": "[3]", "value": "two-fold increase"}]}, {"smiles": "C=CC(=O)Nc1cccc(Oc2nc(Nc3ccc(N4CCN(C)CC4)c(F)c3)nc3[nH]ccc23)c1", "note": "[avitinib, Avitinib]", "values": [{"measurement": "Ki", "setting": "[4]", "value": 3.24, "unit": "µM"}, {"measurement": "ratio of the metabolite concentration relative to the control", "setting": "[1]; 100 μM EGFR TKI, 0.5 mg/mL RLMs, rivaroxaban metabolite M-2, average", "value": 5.6, "unit": "%"}, {"measurement": "effect on rivaroxaban metabolism (metabolite generation rate vs control)", "setting": "[1]; 100 μM EGFR TKI, RLMs", "value": "significantly inhibited"}, {"measurement": "inhibition pattern with rivaroxaban as probe substrate", "setting": "CYP2J2", "value": "atypical inhibitory kinetics"}, {"measurement": "inhibition of rivaroxaban hydroxylation by CYP2J2", "setting": "CYP2J2", "value": "concentration-dependent inhibition"}]}, {"smiles": "Cc1cn(-c2cc(NC(=O)c3ccc(C)c(Nc4nccc(-c5cccnc5)n4)c3)cc(C(F)(F)F)c2)cn1", "note": "[nilotinib]", "values": [{"measurement": "IC50", "setting": "P-gp", "value": "[…]"}]}, {"smiles": "C#Cc1cccc(Nc2ncnc3cc(OCCOC)c(OCCOC)cc23)c1", "note": "[erlotinib]", "values": [{"measurement": "IC50", "setting": "P-gp", "value": "< 10", "unit": "µM"}]}, {"smiles": "Cc1ccc(NC(=O)c2ccc(CN3CCN(C)CC3)cc2)cc1Nc1nccc(-c2cccnc2)n1", "note": "[imatinib]", "values": [{"measurement": "increase of rivaroxaban AUC", "setting": "[2]", "value": 119.96, "unit": "%"}, {"measurement": "increase of rivaroxaban Cmax", "setting": "[2]", "value": 90.43, "unit": "%"}]}, {"smiles": "C=CC(=O)Nc1cc(Nc2nccc(-c3cn(C)c4ccccc34)n2)c(OC)cc1N(C)CCN(C)C", "note": "[osimertinib]", "values": [{"measurement": "inhibition pattern with rivaroxaban as probe substrate", "setting": "CYP2J2", "value": "competitive inhibition"}, {"measurement": "inhibition of rivaroxaban hydroxylation by CYP2J2", "setting": "CYP2J2", "value": "concentration-dependent inhibition"}]}]}
